For 30 molecules, IC50 results are on record in patent US9650339B2, “Inhibitors of histone demethylases” (Gilead Sciences, Inc., priority 2013, dated 2017).

This experiment has as its target T1, KDM3A (JMJD1A) (Homo sapiens, UniProt Q9Y4C1).
T1 construct: 2-end; purchased BPS Bioscience, US; host or cells: Bac (baculovirus system)
T1 sequence (Q9Y4C1 2-1321 limits assumed): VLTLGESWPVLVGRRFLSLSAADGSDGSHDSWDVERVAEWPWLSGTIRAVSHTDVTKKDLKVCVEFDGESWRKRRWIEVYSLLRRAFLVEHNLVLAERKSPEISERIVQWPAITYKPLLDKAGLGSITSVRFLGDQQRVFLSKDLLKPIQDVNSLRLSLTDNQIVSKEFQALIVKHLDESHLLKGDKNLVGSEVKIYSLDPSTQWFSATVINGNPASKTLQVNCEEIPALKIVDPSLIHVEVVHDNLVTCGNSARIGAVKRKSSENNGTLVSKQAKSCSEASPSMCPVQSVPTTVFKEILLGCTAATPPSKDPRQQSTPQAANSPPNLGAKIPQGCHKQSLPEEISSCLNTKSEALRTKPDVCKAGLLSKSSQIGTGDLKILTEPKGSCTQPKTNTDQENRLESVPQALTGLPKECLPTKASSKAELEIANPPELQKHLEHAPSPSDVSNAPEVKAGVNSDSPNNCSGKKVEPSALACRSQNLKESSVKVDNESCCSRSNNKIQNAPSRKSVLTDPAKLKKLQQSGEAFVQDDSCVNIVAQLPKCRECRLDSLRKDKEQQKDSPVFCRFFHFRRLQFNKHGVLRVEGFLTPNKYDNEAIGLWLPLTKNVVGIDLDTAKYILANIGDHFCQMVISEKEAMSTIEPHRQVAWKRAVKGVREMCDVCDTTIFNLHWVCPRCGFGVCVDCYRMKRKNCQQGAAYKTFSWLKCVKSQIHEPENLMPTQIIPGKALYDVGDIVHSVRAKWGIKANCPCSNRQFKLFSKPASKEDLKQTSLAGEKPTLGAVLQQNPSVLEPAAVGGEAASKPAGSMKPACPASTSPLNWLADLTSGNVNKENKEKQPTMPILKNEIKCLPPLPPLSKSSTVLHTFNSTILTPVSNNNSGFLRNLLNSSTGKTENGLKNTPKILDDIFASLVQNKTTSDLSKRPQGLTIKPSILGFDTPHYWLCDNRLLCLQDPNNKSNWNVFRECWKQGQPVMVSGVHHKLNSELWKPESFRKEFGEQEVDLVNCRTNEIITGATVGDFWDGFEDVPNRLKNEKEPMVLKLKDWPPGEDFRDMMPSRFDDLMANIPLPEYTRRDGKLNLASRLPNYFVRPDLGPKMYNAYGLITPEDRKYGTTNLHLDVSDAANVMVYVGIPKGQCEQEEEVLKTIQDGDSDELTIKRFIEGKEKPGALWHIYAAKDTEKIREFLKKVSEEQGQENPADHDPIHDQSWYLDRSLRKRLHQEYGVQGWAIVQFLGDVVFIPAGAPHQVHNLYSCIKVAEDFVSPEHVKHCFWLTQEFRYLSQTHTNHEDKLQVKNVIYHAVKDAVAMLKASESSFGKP
Nature of the experiment: Histone lysine demethylase AlphaLISA assay, KDM3A. In kind it is biochemical. To be noted: read-out: KDM3 A HDME Inhibition IC50. On the procedure: Assays are performed analogously to the protocol described by PerkinElmer (Roy et al. PerkinElmer Technical Note: AlphaLISA #12, April 2011)
Enzymes are dissolved in enzyme buffer and incubated for 10 min before being added to 3% DMSO solutions of compounds in enzyme buffer. Incubated for another 10 minutes, before substrate solution is added and the reaction mixture is incubated at room temperature. 10 μL acceptor beads, suspended in Epigenetic Buffer (Perkin Elmer AL008) from stock, are added and the suspension is incubated in the dark at room temperature, before a suspension of streptavidin donor beads (Perkin Elmer 6760002) in Epigenetic Buffer is added. After incubation at room temperature in the dark the plates are read. […]
BK9M2: Biotin-ARTKQTAR(KMe2)STGGKAPRKQ-NH2 (AnaSpec 64359) […]
Substrate Solution: Substrate, 25 μM L-Asc, and 10 μM α-KG in Buffer A.
A general note: In Alpha technology, singlet oxygen from a donor bead excites a nearby acceptor bead.

On to `CCN(CC)CCCCN(Cc1cc(CNC(=O)C(F)(F)F)ccn1)C(=O)C(F)(F)F` [Compound 6, N-[4-(diethylamino)butyl]-- 2,2,2-trifluoro-N-({4-[(trifluoroacetamido)-methyl]pyridin-2-yl}methyl)acetamide], for which the IC50 was greater than 2.5 µM.

In the case of `CN(C)CCNCc1cc(CNC(C#N)C2CC2)ccn1` (stereo not drawn) [Compound 21, 2-cyclopropyl-2-({[2-({[2-(dimethylamino)ethyl]-amino}methyl)pyridin-4-yl]methyl}amino)-acetonitrile], the IC50 was greater than 2.5 µM. `CN(C)CC1CCC(CNCc2cc(C=O)ccn2)CC1` (stereo not drawn) [Compound 97, 2-{[({4-[(dimethylamino)-methyl]cyclohexyl}-methyl)amino]-methyl}pyridine-4-carbaldehyde]: the IC50 was greater than 2.5 µM.

For the molecule `CN(C)C(=O)CNCc1cc(CNCCF)ccn1` [Compound 14, 2-{[(4-{[(2-fluoroethyl)amino]-methyl}pyridin-2-yl)methyl]amino}-N,N-dimethylacetamide], the IC50 was greater than 2.5 µM. Under `CN1CCN(C(=O)CNCc2cc(/C=N/C3CC3)ccn2)CC1` [Compound 54, 2-[({4-[N-cyclopropyl-carboximidoyl]-pyridin-2-yl}methyl)amino]-1-(4-methylpiperazin-1-yl)ethan-1-one] stands greater than 2.5 µM; under `CCN(CC)CCCCNCc1cc(C=O)ccn1` [Compound 107, 2-({[4-(diethylamino)-butyl]amino}-methyl)pyridine-4-carbaldehyde], greater than 2.5 µM. Take `CCN(CC)CCCCNCc1cc(/C=N/CC(F)(F)C(F)(F)F)ccn1` [Compound 62, {[2-({[4-(diethylamino)-butyl]amino}methyl)pyridin-4-yl]methylidene} (2,2,3,3,3-pentafluoropropyl)-amine]: the IC50 is greater than 2.5 µM. As to `CCN1CCCC1CNC(=O)CNCc1cc(/C=N/C2CC2)ccn1` (stereo not drawn) [Compound 51, 2-[({4-[N-cyclopropyl-carboximidoyl]-pyridin-2-yl}methyl)-amino]-N-[(1-ethylpyrrolidin-2-yl)methyl]acetamide], the IC50 was greater than 2.5 µM.

On to `CN(CCCn1cccn1)C(=O)CNCc1cc(/C=N/C2CC2)ccn1` [Compound 52, 2-[({4-[N-cyclopropyl-carboximidoyl]-pyridin-2-yl}methyl)amino]-N-methyl-N-[3-(1H-pyrazol-1-yl)propyl]acetamide], for which the IC50 was greater than 2.5 µM.

On to `O=C(CNCc1cc(/C=N/C2CC2)ccn1)N1CCC[C@@H]1CN1CCCC1` [Compound 49, 2-[({4-[N-cyclopropyl-carboximidoyl]pyridin-2-yl}methyl)amino]-1-[(2R)-2-(pyrrolidin-1-ylmethyl)pyrrolidin-1-yl]ethan-1-one], for which the 50% inhibitory concentration (IC50) was greater than 2.5 µM. As for `CC(C#N)NCc1ccnc(CNCCCN(C)C)c1` (stereo not drawn) [Compound 22, 2-({[2-({[3-(dimethylamino)propyl]-amino}methyl)pyridin-4-yl]methyl}amino)-propanenitrile], the IC50 was greater than 2.5 µM. The result for `CN(C)C(=O)CNCc1cc(/C=N/CCCc2ccccc2)ccn1` [Compound 34, N,N-dimethyl-2-[({4-[[(3-phenylpropyl)imino]-methyl]pyridin-2-yl}methyl)amino]-acetamide] reads greater than 2.5 µM; that for `O=Cc1ccnc(CNCCCN2CCCC2)c1` [Compound 111, 2-({[3-(pyrrolidin-1-yl)propyl]amino}-methyl)pyridine-4-carbaldehyde], greater than 2.5 µM; that for `c1ccc(CN2CCC[C@H]2CNCc2cc(CNCC3CC3)ccn2)cc1` [Compound 16, {[(2S)-1-benzylpyrrolidin-2-yl]methyl}[(4-{[(cyclopropylmethyl)-amino]methyl}pyridin-2-yl)methyl]amine], greater than 2.5 µM. Under `CN(C)CCNCc1cc(C=O)ccn1` [Compound 110, 2-({[2-(dimethylamino)-ethyl]amino}methyl)-pyridine-4-carbaldehyde] stands greater than 2.5 µM; under `CN1CCN(C(=O)CNCc2cc(C=O)ccn2)CC1` [Compound 103, 2-({[2-(4-methylpiperazin-1-yl)-2-oxoethyl]-amino}methyl)-pyridine-4-carbaldehyde], greater than 2.5 µM; under `CCN(CCN(C)C)C(=O)CNCc1cc(CNC(=O)C(F)(F)F)ccn1` [Compound 25, N-[(2-{[({[2-(dimethylamino)ethyl]-(ethyl)carbamoyl}-methyl)amino]methyl}-pyrtdin-4-yl)methyl]-2,2,2-trifluoroacetamide], greater than 2.5 µM. As for `CN(C)CCCCCNCc1cc(CN)ccn1` [Compound 8, [2-({[5-(dimethylamino)pentyl]-amino}methyl)pyridin-4-yl]methanamine], the IC50 is greater than 2.5 µM.

Turning to `O=Cc1ccnc(CNCC(=O)N2CCC(Cc3ccccc3)CC2)c1` [Compound 106, 2-({[2-(4-benzylpiperidin-1-yl)-2-oxoethyl]-amino}methyl)-pyridine-4-carbaldehyde], the IC50 is greater than 2.5 µM.

Regarding `C(=N/C1CC1)/c1ccnc(CNCCCN2CCCC2)c1` [Compound 42, N-{[2-({[3-(pyrrolidin-1-yl)propyl]amino}-methyl)pyridin-4-yl]methylidene}-cyclopropanamine], the IC50 was greater than 2.5 µM. Under `CCN(CC)CCCCNC(=O)CNCc1cc(C=O)ccn1` [Compound 112, N-[4-(diethylamino)-butyl]-2-{[(4-formylpyridin-2-yl)methyl]amino}-acetamide] stands greater than 2.5 µM; under `C(=N\C1CC1)/c1ccnc(CNCCCCN2CCC2)c1` [Compound 44, N-{[2-({[4-(azetidin-1-yl)butyl]amino}methyl)-pyridin-4-yl]methylidene}-cyclopropanamine], greater than 2.5 µM.

As to `COc1ccccc1CN1CCC(NC(=O)CNCc2cc(CN)ccn2)CC1` [Compound 9, 2-({[4-(aminomethyl)pyridin-2-yl]methyl}amino)-N-{1-[(2-methoxyphenyl)methyl]-piperidin-4-yl}acetamide], the IC50 was greater than 2.5 µM.

As for `CCN(CC)CCCCN(Cc1cc(C=O)ccn1)C(=O)C(F)(F)F` [Compound 115, N-[4-(diethylamino)butyl]-2,2,2-trifluoro-N-[(4-formylpyridin-2-yl)methyl]acetamide], the IC50 is greater than 2.5 µM.

For the molecule `CN(C)C/C=C/CNCc1cc(/C=N/C2CC2)ccn1` [Compound 43, N-{[2-({[(2E)-4-(dimethylamino)but-2-en-1-yl]amino}-methyl)pyridin-4-yl]methylidene}-cyclopropanamine], the IC50 was greater than 2.5 µM. Under `CN(C)CC1CCC(CNCc2cc(/C=N/C3CC3)ccn2)CC1` (stereo not drawn) [Compound 46, N-[(2-{[({4-[(dimethylamino)-methyl]cyclohexyl}-methyl)amino]-methyl}pyridin-4-yl)methylidene]-cyclopropanamine] stands greater than 2.5 µM; under `CON=Cc1ccnc(CNCCCN(C)C)c1` [Compound 64, [3-(dimethylamino)-propyl]({4-[(methoxyimino)-methyl]pyridin-2-yl}methyl)amine], greater than 2.5 µM; under `CN1CCC(CNCc2cc(C=O)ccn2)CC1` [Compound 100, 2-({[(1-methyl-piperidin-4-yl)methyl]amino}-methyl)pyridine-4-carbaldehyde], greater than 2.5 µM. Consider `C#CCN(C)C(=O)CNCc1cc(/C=N/C2CC2)ccn1` [Compound 56, 2-[({4-[N-cyclopropyl-carboximidoyl]-pyridin-2-yl}methyl)amino]-N-methyl-N-(prop-2-yn-1-yl)acetamide], for which the IC50 is greater than 2.5 µM. As for `CCN(CCN(C)C)C(=O)CNCc1cc(C=O)ccn1` [Compound 101], the IC50 is greater than 2.5 µM.

The term IC50 denotes the concentration that inhibits the measured activity by half.
